# Patent US20230399341A1, “7-PHENYL SUBSTITUTED 2-AMINOQUINAZOLINE INHIBITORS OF HPK1” (MERCK SHARP & DOHME LLC, priority 2020, published 2023)
# Target: T1, Human HPK1, catalytic domain (Homo sapiens, UniProt Q92918)
# T1 sequence (Q92918 1-346): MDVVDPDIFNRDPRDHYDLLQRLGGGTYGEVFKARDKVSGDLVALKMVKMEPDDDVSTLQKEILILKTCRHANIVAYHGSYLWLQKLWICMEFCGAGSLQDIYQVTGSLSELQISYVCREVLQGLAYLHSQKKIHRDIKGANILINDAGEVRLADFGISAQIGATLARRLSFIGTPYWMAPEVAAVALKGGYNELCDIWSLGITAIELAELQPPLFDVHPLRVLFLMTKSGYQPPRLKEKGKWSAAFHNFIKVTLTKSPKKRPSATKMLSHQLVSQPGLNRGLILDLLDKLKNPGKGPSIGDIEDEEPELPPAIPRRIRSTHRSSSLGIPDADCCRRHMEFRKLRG
# Assay: HPK1-SLP76 TR-FRET Assay
# Type: biochemical
# Conditions: 75 pM HPK1, ATP 10 uM, SLP76 10 nM, 30 min pre-incubation, 60 min reaction
row,IC50 [nM],SMILES
1,393,"COc1cc2c(cc1Nc1ncc3ccc(-c4cc(C#N)ccc4F)cc3n1)CNCC2 [Compound 1-90, 4-fluoro-3-{2-[(6-methoxy-1,2,3,4-tetrahydroisoquinolin-7-yl)amino]quinazolin-7-yl}benzonitrile]"
2,210,"COc1cc2c(cc1Nc1ncc3ccc(-c4cccc(N5CCOCC5)c4)cc3n1)CNCC2 [Compound 1-91, N-(6-methoxy-1,2,3,4-tetrahydroisoquinolin-7-yl)-7-[3-(morpholin-4-yl)phenyl]quinazolin-2-amine]"
3,92.4,"COc1cc2c(cc1Nc1ncc3ccc(-c4ccccc4C4CC4)cc3n1)CNCC2 [Compound 1-92, 7-(2-cyclopropylphenyl)-N-(6-methoxy-1,2,3,4-tetrahydroisoquinolin-7-yl)quinazolin-2-amine]"
4,481,"COc1cc2c(cc1Nc1ncc3ccc(-c4cc(N)ccc4C)cc3n1)CNCC2 [Compound 1-93, 7-(5-amino-2-methylphenyl)-N-(6-methoxy-1,2,3,4-tetrahydroisoquinolin-7-yl)quinazolin-2-amine]"
5,81.3,"COc1cc2c(cc1Nc1ncc3ccc(-c4c(C)cccc4F)cc3n1)CNCC2 [Compound 1-94, 7-(2-fluoro-6-methylphenyl)-N-(6-methoxy-1,2,3,4-tetrahydroisoquinolin-7-yl)quinazolin-2-amine]"
6,2.32,"COc1cc2c(cc1Nc1ncc3cc(F)c(-c4cnc5c(c4C)NCCO5)cc3n1)CN(C)CC2 [Compound 1-95, 6-fluoro-N-(6-methoxy-2-methyl-1,2,3,4-tetrahydroisoquinolin-7-yl)-7-(8-methyl-2,3-dihydro-1H-pyrido[2,3-b][1,4]oxazin-7-yl)quinazolin-2-amine]"
7,1.85,"COc1cc2c(cc1Nc1ncc3cc(Cl)c(-c4cnc5c(c4C)NCCO5)cc3n1)CN(C)CC2 [Compound 1-96, 6-chloro-N-(6-methoxy-2-methyl-1,2,3,4-tetrahydroisoquinolin-7-yl)-7-(8-methyl-2,3-dihydro-1H-pyrido[2,3-b][1,4]oxazin-7-yl)quinazolin-2-amine]"
8,53.8,"COc1cc2c(cc1Nc1ncc3cc(C#N)c(-c4cnc5c(c4C)NCCO5)cc3n1)CN(C)CC2 [Compound 1-97, 2-[(6-methoxy-2-methyl-1-1,2,3,4-tetrahydroisoquinolin-7-yl)amino]-7-(8-methyl-2,3-dihydro-1H-pyrido[2,3-b][1,4]oxazin-7-yl)quinazoline-6-carbonitrile]"
9,203,"COc1cc2c(cc1Nc1ncc3ccc(-c4cccc(CNC(C)=O)c4)cc3n1)CN(C)CC2 [Compound 1-98, N-[(3-{2-[(6-methoxy-2-methyl-1,2,3,4-tetrahydroisoquinolin-7-yl)amino]quinazolin-7-yl}phenyl)methyl]acetamide]"
10,281,"COc1cc2c(cc1Nc1ncc3ccc(-c4cccc(C(C)(C)NC(C)=O)c4)cc3n1)CN(C)CC2 [Compound 1-100, N-[2-(3-{2-[(6-methoxy-2-methyl-1,2,3,4-tetrahydroisoquinolin-7-yl)amino]quinazolin-7-yl}phenyl)propan-2-yl]acetamide]"
11,130,"COc1cc2c(cc1Nc1ncc3ccc(-c4cccc(C(N)=O)c4)cc3n1)CN(C)CC2 [Compound 1-101, 3-{2-[(6-methoxy-2-methyl-1,2,3,4-tetrahydroisoquinolin-7-yl)amino]quinazolin-7-yl}benzamide]"
12,328,"COc1cc2c(cc1Nc1ncc3ccc(-c4ccc(C#N)nc4)cc3n1)CN(C)CC2 [Compound 1-103, 5-{2-[(6-methoxy-2-methyl-1,2,3,4-tetrahydroisoquinolin-7-yl)amino]quinazolin-7-yl}pyridine-2-carbonitrile]"
13,212,"COc1cc2c(cc1Nc1ncc3ccc(-c4cnc(C#N)c(C)c4)cc3n1)CN(C)CC2 [Compound 1-104, 5-{2-[(6-methoxy-2-methyl-1,2,3,4-tetrahydroisoquinolin-7-yl)amino]quinazolin-7-yl}-3-methylpyridine-2-carbonitrile]"
14,196,"COc1cc2c(cc1Nc1ncc3ccc(-c4c[nH]nc4C)cc3n1)CN(C)CC2 [Compound 1-105, N-(6-methoxy-2-methyl-1,2,3,4-tetrahydroisoquinolin-7-yl)-7-(3-methyl-1H-pyrazol-4-yl)quinazolin-2-amine]"
15,44.1,"COc1cc2c(cc1Nc1ncc3ccc(-c4cnc5[nH]c(=O)[nH]c5c4)cc3n1)CN(C)CC2 [Compound 1-106, 6-{2-[(6-methoxy-2-methyl-1,2,3,4-tetrahydroisoquinolin-7-yl)amino]quinazolin-7-yl}-1,3-dihydro-2H-imidazo[4,5-b]pyridin-2-one]"
16,488,"COc1cc2c(cc1Nc1ncc3ccc(-c4ccc(-n5cccn5)nc4)cc3n1)CN(C)CC2 [Compound 1-107, N-(6-methoxy-2-methyl-1,2,3,4-tetrahydroisoquinolin-7-yl)-7-[6-(1H-pyrazol-1-yl)pyridin-3-yl]quinazolin-2-amine]"
17,56,"COc1cc2c(cc1Nc1ncc3ccc(-c4ccc(CC#N)nc4)cc3n1)CN(C)CC2 [Compound 1-108, (5-{2-[(6-methoxy-2-methyl-1,2,3,4-tetrahydroisoquinolin-7-yl)amino]quinazolin-7-yl}pyridin-2-yl)acetonitrile]"
18,0.812,"COc1cc2c(cc1Nc1ncc3ccc(-c4ccccc4-c4ccnn4C)cc3n1)CN(C)CC2 [Compound 1-109, N-(6-methoxy-2-methyl-1,2,3,4-tetrahydroisoquinolin-7-yl)-7-[2-(1-methyl-1H-pyrazol-5-yl)phenyl]quinazolin-2-amine]"
19,302,"COc1cc2c(cc1Nc1ncc3ccc(-c4ccccc4-c4nnc(C)o4)cc3n1)CN(C)CC2 [Compound 1-110, N-(6-methoxy-2-methyl-1,2,3,4-tetrahydroisoquinolin-7-yl)-7-[2-(5-methyl-1,3,4-oxadiazol-2-yl)phenyl]quinazolin-2-amine]"
20,0.766,"Cc1c(-c2cc3nc(Nc4ccc5c(c4)CN(CC(C)(C)O)C5=O)ncc3cc2F)cnc2c1NCCO2 [Compound 1-111, 5-{[6-fluoro-7-(8-methyl-2,3-dihydro-1H-pyrido[2,3-b][1,4]oxazin-7-yl)quinazolin-2-yl]amino}-2-(2-hydroxy-2-methylpropyl)-2,3-dihydro-1H-isoindol-1-one]"
21,5.2,"Cc1c(-c2cc3nc(Nc4ccc5c(c4)C(C)(C)OC5=O)ncc3cc2F)cnc2c1NCCO2 [Compound 1-112, 5-{[6-fluoro-7-(8-methyl-2,3-dihydro-1H-pyrido[2,3-b][1,4]oxazin-7-yl)quinazolin-2-yl]amino}-3,3-dimethyl-2-benzofuran-1(3H)-one]"
22,0.0883,"Cc1c(-c2cc3nc(Nc4ccc5c(c4)CN(C)CC5)ncc3cc2F)cnc2c1NCCO2 [Compound 1-114, 6-fluoro-7-(8-methyl-2,3-dihydro-1H-pyrido[2,3-b][1,4]oxazin-7-yl)-N-(2-methyl-1,2,3,4-tetrahydroisoquinolin-7-yl)quinazolin-2-amine]"
23,0.0508,"Cc1c(-c2cc3nc(Nc4ccc(CS(C)(=O)=O)cc4)ncc3cc2F)cnc2c1NCCO2 [Compound 1-115, 6-fluoro-7-(8-methyl-2,3-dihydro-1H-pyrido[2,3-b][1,4]oxazin-7-yl)-N-(4-[(methylsulfonyl)methyl]phe-nyl}quinazolin-2-amine]"
24,0.595,"CNC(=O)C1(c2ccc(Nc3ncc4cc(F)c(-c5cnc6c(c5C)NCCO6)cc4n3)cc2)CCCC1 [Compound 1-120, 1-(4-{[6-fluoro-7-(8-methyl-2,3-dihydro-1H-pyrido[2,3-b][1,4]oxazin-7-yl)quinazolin-2-yl]amino}phenyl)-N-methylcyclopentane-1-carboxamide]"
25,0.256,"CNC(=O)C1(c2ccc(Nc3ncc4cc(F)c(-c5cnc6c(c5C)NCCO6)cc4n3)cc2)CCC1 [Compound 1-121, 1-(4-{[6-fluoro-7-(8-methyl-2,3-dihydro-1H-pyrido[2,3-b][1,4]oxazin-7-yl)quinazolin-2-yl]amino}phenyl)-N-methylcyclobutane-1-carboxamide]"
26,0.532,"CNC(=O)C(F)(F)c1ccc(Nc2ncc3cc(F)c(-c4cnc5c(c4C)NCCO5)cc3n2)cc1 [Compound 1-122, 2,2-difluoro-2-(4-{[6-fluoro-7-(8-methyl-2,3-dihydro-1H-pyrido[2,3-b][1,4]oxazin-7-yl)quinazolin-2-yl]amino}phenyl)-N-methylacetamide]"
27,0.0828,"Cc1c(-c2cc3nc(Nc4ccc(CS(=O)(=O)C(C)C)cc4)ncc3cc2F)cnc2c1NCCO2 [Compound 1-128, 6-fluoro-N-(4-((isopropylsulfonyl)methyl)phenyl)-7-(8-methyl-2,3-dihydro-1H-pyrido[2,3-b][1,4]oxazin-7-yl)quinazolin-2-amine]"
28,0.0917,"Cc1c(-c2ccc3cnc(Nc4ccc(CS(=O)(=O)C(C)C)cc4)nc3c2)cnc2c1NCCO2 [Compound 1-129, N-(4-((isopropylsulfonyl)methyl)phenyl)-7-(8-methyl-2,3-dihydro-1H-pyrido[2,3-b][1,4]oxazin-7-yl)quinazolin-2-amine]"
29,0.0726,"CNC(=O)Cc1ccc(Nc2ncc3cc(F)c(-c4cnc5c(c4C)NCCO5)cc3n2)cc1 [Compound 1-130, 2-(4-{[6-fluoro-7-(8-methyl-2,3-dihydro-1H-pyrido[2,3-b][1,4]oxazin-7-yl)quinazolin-2-yl]amino}phenyl)-N-methylacetamide]"
30,0.165,"Cc1c(-c2cc3nc(Nc4ccc(CC(N)=O)cc4)ncc3cc2F)cnc2c1NCCO2 [Compound 1-131, 2-(4-{[6-fluoro-7-(8-methyl-2,3-dihydro-1H-pyrido[2,3-b][1,4]oxazin-7-yl)quinazolin-2-yl]amino}phenyl)acetamide]"
